Here are results for seven compounds from PMC2929814 (Journal of medicinal chemistry, 2010).

A word on the pIC50: it is −log10 of the IC50, conventionally taken in molar units.

Data set [1] concerns P. falciparum D6 (CQS) strain. Kind of data set: Activity against CQ-sensitive P. falciparum D6 in red cell culture. It counts as cell-based, Plasmodium falciparum.
The subject of data set [2] is mouse spleen lymphocytes. The data set can be described thus: Cytotoxicity against mouse spleen lymphocytes. The following applies: estimated ±50%.
In data set [3] the test system is parasitemia. Conditions: mouse model, oral dosing; cited from earlier work.
Data set [4] relates to P. falciparum D6 (CQS) strain. Conditions: read-out: IC50 against the D6 strain; reported value; cited from earlier work.

pIC50: −log10 of the molar value. Like-named read-outs stand apart in the source and are kept apart here.

As to `CCN(CC)CCCC(C)Nc1ccnc2cc(Cl)ccc12` (stereo not shown) [CQ, chloroquine, reference compound], the pIC50 in data set [1] (Plasmodium falciparum, D6, read-out: IC50 D6 (CQS)) was 8.15. The Cytotoxicity in data set [2] is 12 µM.
Turning to `CN(CCCNc1ccnc2cc(Cl)ccc12)CCCN1c2ccccc2CCc2ccccc21` [Compound 1], the Cytotoxicity in data set [2] is 0.7 µM. For the same compound, in data set [3], the “parasitemia cleared to” value was below 1%.
Consider `Clc1ccc2c(NCCCNCCCCN(Cc3ccccc3)Cc3ccccc3)ccnc2c1` [Compound 5], for which the Cytotoxicity in data set [2] was 1.3 µM.
On the same count and under the same terms, next, `Clc1ccc2c(NCCN(CCN(Cc3ccccc3)Cc3ccccc3)CCN(Cc3ccccc3)Cc3ccccc3)ccnc2c1` [Compound 7]: 6.2 µM.
With `O=C(CNCCNc1ccnc2cc(Cl)ccc12)N(c1ccccc1)c1ccccc1` [Compound 10], the “therapeutic index (cytotoxicity/efficacy) for D6” value in data set [1] (cytotoxicity / IC50 D6) is given as 12,000. Also, in data set [2], the Cytotoxicity is 62 µM.
Take `Clc1ccc2c(N3CCN(CCN(Cc4ccccc4)Cc4ccccc4)CC3)ccnc2c1` [Compound 11]: the Cytotoxicity in data set [2] is 61 µM.
With `Clc1ccc2c(N3CCN(CCCN4CCN(c5ccnc6cc(Cl)ccc56)CC4)CC3)ccnc2c1` [piperaquine, 1,3-bis-[4-(7-chloroquinolyl-4)-piperazinyl-1]-propane], the pIC50 in data set [4] is above 8.00.
